{"source": "patent US7615380B2", "about": "“Methods for modulating an immune response by modulating KRC activity” (President and Fellows of Harvard College, priority 2001, dated 2009)", "key": {"CD69": {"tested_on": "CD69", "test": "CD69 expression by FACS in transfected Jurkat T cells", "format": "cell-based, human", "experimental": "KRC was transfected into Jurkat T cells and CD69 expression was measured by FACS analysis."}, "IL-2": {"tested_on": "IL-2", "test": "IL-2 ELISA in retrovirally transduced primary CD4+ T cells", "format": "cell-based", "conditions": "anti CD3 or anti CD3 plus CD28, 24 hours", "experimental": "In panel A Jurkat T cells were stably transfected with vector (pEF) or KRC expression plasmids. Stable clones were stimulated for 18 hours with PMA (50 ng/mL) plus ionomycin (2 μM) and IL-2 production was measured by ELISA. In panel B Primary CD4+ T cells were activated for 36 hours and subsequently transduced with control (RV), KRC, or KRC dominant negative (ZAS2) bicistronic GFP-expressing retroviruses. GFP-positive cells were sorted and stimulated for 24 hours with anti-CD3 or anti-CD3/anti-CD28 antibodies and IL-2 production was measured by ELISA. In panel C CD4 T cells from KRC +/+ or −/− mice were stimulated with anti-CD3 (1.0 μg/mL)/CD28 (0.5 μg/mL) antibodies for 24 hours and IL-2 production was measured by ELISA. In panel D CD4 T cells from KRC +/+ or −/− mice were stimulated with anti-CD3/CD28 antibodies for 72 hours in the presence of 200 U/mL human IL-2. IFNγ production was measured by ELISA.\nActivated CD4^+T cells were transduced by RV, RV-KRC or RV-ZAS2 as described previously (Szabo, S. J., et al. (2000) Cell 100:655-669).\nTherefore, the effects of KRC overexpression were studied in primary CD4+T cells as well as in the Jurkat line using a retroviral delivery system to express KRC in primary CD4+T cells. […] The ability of each population to produce IL-2 following subsequent activation by anti CD3 or anti CD3 plus CD28 was measured at 24 hours post-stimulation. […]"}, "TRAF2, TRAF5, TRAF6": {"tested_on": "TRAF2, TRAF5, TRAF6", "test": "Coimmunoprecipitation with TRAF family members in 293T cells", "format": "binding", "excerpt": "FIGS. 1(A)-1(E) show the interaction of amino acid residues 204 to 1055 of KRC (“KRC tr”) (amino acids 204-1055 of SEQ ID NO:2) with TRAF family members. […] FIG. 1(B) upper panel depicts the interaction of KRC tr with TRAFs in mammalian cells. 293 T cells were cotransfected with the indicated FLAG-TRAFs and MYC-tagged KRC tr, and immunoprecipitated with anti-MYC antibody, followed by blotting with anti-FLAG antibody. FIG. 1(B) lower panel depicts the direct western blot of overexpressed TRAFS and KRC tr with anti-FLAG or anti-MYC. FIG. 1(C) depicts the differential interaction of KRC tr with TRAF proteins. The coimmunoprecipitation experiments were performed in the presence of 300 mM NaCl instead of 137 mM NaCl. FIG. 1(D) depicts KRC tr interacting with TRAF2 lacking the Ring finger domain. 293 T cells were transfected with MYC-KRC tr and with FLAG tagged TRAF2 or with FLAG-tagged TRAF2 (87-501). FIG. 1(E) depicts the interaction of KRC tr with endogenous TRAF2 but not with endogenous TRAF5 or TRAF6. 293T were transfected with an expression vector encoding an MYC-tagged KRC tr, or empty plasmid. Lysates from 293T cells were incubated with anti-MYC antibodies. Coimmunoprecipitated endogenous TRAF was detected by western blotting with specific anti-TRAF antibodies.\nEffectene™ mediated transfections into 293T cells were performed. […]"}}}
{"substance": "KRC: full-length KRC zinc finger protein (SEQ ID NO:2) overexpressed from an expression vector", "values": [{"measurement": "CD69 expression", "setting": "CD69", "result": "increases expression of CD69"}, {"measurement": "IL-2 production, increase versus GFP control retrovirus", "setting": "IL-2", "result": "3 to 4", "unit": "fold"}, {"measurement": "interaction with TRAF family members", "setting": "TRAF2, TRAF5, TRAF6", "result": "higher affinity with TRAF2 than with TRAF5 and TRAF6"}]}
